2 substances from patent US10898548B2, “Modulators of protein tyrosine phosphatase and uses thereof” (LEUVAS THERAPEUTICS, priority 2015, dated 2021) can be followed below.

“Also recorded” adds a separate entry of the source. Marks after values point to notes of the source that are not given here.

One series relates to U251 GBM cells. Briefly: cell number by flow cytometry, U251 GBM cells. It counts as cell-based. To be noted: input 5000. On the procedure:
Cell viability and survival was measured using the MTT assay, a colorimetric assay for assessing cell metabolic activity set up under conditions where the absorption reflects the number of viable cells present (Table 21 and 22) and expressed as relative absorption at 570 nm. Early apoptosis was measured using VYBRANT DyeCycle Violet stain (Molecular Probes), a DNA-selective, cell membrane-permeant dye that can distinguish the compacted state of the nuclear chromatin in apoptotic cells as determined by flow cytometry and presented as the percent of cells that are apoptotic (Table 23 and 24). The actual number of cells following treatment with TAT-ICD or TAT alone (Table 25) was determined using flow cytometry compared to an input of 5,000 cells at time zero. To confirm apoptosis the TUNEL labeling assay, which detects DNA strand breaks in apoptotic cells by fluorescence microscopy, was also used to examine U251 cells treated with the PTPRG WD. Briefly, the assay used an optimized terminal transferase ([…]) to label 3′OH ends in genomic DNA with TMR-dUTP, thus allowing the measurement and quantification of cell death by apoptosis. U251 cells were pretreated for 1, 3 and 6 hours with 50 μM P1-WD. Then cells were fixed and permeabilized, incubated with TUNEL reaction mixture for 1 h at RT, and then stained with DAPI (for nuclei detection) and with Alexa670-Phalloidin (to detect actin in cell membranes). After the staining steps, cells were visualized with a confocal microscope.
For orientation: Flow cytometry measures light scatter and fluorescence of single cells or particles in a stream.

Another series relates to bEnd3 endothelial cells. Put plainly: MTT assay, bEnd3 endothelial cells. It counts as cell-based. A general note: Tetrazolium assays rely on reduction of a dye to a coloured formazan, in cell work by metabolically active cells.
The test system of series [1] is DBTRG GBM cells. Put plainly: MTT survival assay, DBTRG GBM cells. It counts as cell-based, human. As for the experimental part:
(§1) The DBTRG-O5MG (Denver Brain Tumor Research Group 05) cell line was established from tissue from a patient with glioblastoma multiforme who had been treated with local brain irradiation and multi drug chemotherapy (Kruse C A, et al. 1992 In vitro Cell Dev Biol, 28A(9-10):609-14). U87 is a commonly studied and thoroughly characterized grade IV glioma cell line derived from malignant glioma (Clark M J, et al, 2010 Plos Genet. 6(1):e1000832.). T98G is a glioblastoma multiforme cell line extracted from a person (Stein G H, 1979, J. Cell Physiol, 99(1):43-54). Proliferation and survival were assessed following TAT-ICD or control peptide (Table 29) or the P1-WD or control peptide treatment using the MTT assay as described above. Data are relative absorption; mean and standard deviation.

The test system of series [2] is DBTRG GBM cells. Briefly: VYBRANT early apoptosis, DBTRG GBM cells. To be noted: 0.5 μM. It counts as cell-based, human.
Series [3] relates to U87 GBM cells. Briefly: MTT survival assay, U87 GBM cells. It is filed as cell-based. As for the experimental part: as §1
Series [4] concerns U87 GBM cells. Put plainly: VYBRANT apoptosis, U87 GBM cells. It is filed as cell-based. To be noted: 0.5 μM.
A further series has as its system human neutrophils. Put plainly: fMLP-triggered adhesion of neutrophils (PMNs) to ICAM-1. To be noted: for adhesion of human neutrophils to ICAM-1 (adherent cells), Resting (no stimulation): mean ± SD. It counts as cell-based. On the procedure: We investigated the functional effect of PTPRG activation on integrin activation and mediated adhesion by chemoattractants in human primary monocytes and PMNs in a static and flow adhesion assays. Briefly, human primary monocytes or polymorphonuclear cells were suspended at 5×10^6/ml in standard adhesion buffer. Adhesion assays were performed on 18-well glass slides coated with 1 mg/ml human fibrinogen or with 1 μg/ml human ICAM-1 in PBS; 20 μl of cell suspension were added to the coated wells and stimulated for 1 min at 37° C. with 5 μl of fMLP, 0.05 μM final concentration. After rapid washing, adherent cells were fixed in ice-cold 1.5% glutaraldehyde in PBS, and still images of adherent cells in 0.2 mm^2 fields were acquired al 20× phase contrast magnification, NA 0.40, with a charge-coupled device camera (ICD-42B; Ikegami) connected to an inverted microscope (IX50; Olympus). Image acquisition and computer-assisted enumeration of adherent cells were performed with ImageJ (National Institute of Health).
Chemokine-triggered adhesion of human neutrophils was measured similarly. Freshly isolated, non-activated human neutrophils incubated with buffer or increasing concentrations of TAT-ICD and then spotted onto ICAM-1-coated slides. Integrin-mediated adhesion was triggered using 50 nM fMLP and the adherent cells were fixed and enumerated as described for the lymphocytes above.

The next series relates to PTPRG. Briefly: in vitro phosphatase activity (pNPP) on membranes from human primary monocytes. It is filed as biochemical. To be noted: monocyte membranes, DMSO 7.25. On the procedure:
We first tested the biochemical activity of the fusion peptide by performing in vitro assays of phosphatase activity on purified membranes isolated from human primary monocytes compared to membranes isolated from human primary polymorphonuclear cells (PMNs). Human primary monocytes and polymorphonuclear (PMNs) cells were isolated from whole blood of healthy donors. Purity of monocyte preparation was evaluated by flow cytometry after staining with fluorescein isothiocyanate (FITC)-conjugated anti-CD14 antibody and was more than 95%. Isolated cells were kept at 37° C. in standard adhesion buffer (PBS, 1 mM CaCl2, 1 mM MgCl2, 10% FBS, pH 7.2) and used within 1 h.
The phosphatase activity in membrane fractions isolated from human monocytes and PMNs was assessed. […] Cells were then sonicated twice (6 sec, 15% W) and centrifuged at 2000 rpm for 10 minutes. The supernatants were collected and centrifuged at 28000 rpm for 60 minutes. After centrifugation, the supernatants were discarded, and the membrane pellets were dissolved in 20 mM tris pH 7.4. Equal amount of membrane fractions were added to pNPP buffer containing 20 mM tris, 10 mM DTT and 2 mM pNPP. Following, DMSO and peptides were added. After 30 minutes of incubation, levels of de-phosphorylation, in presence or absence of orthovanadate, were measured at 405 nm by a plate reader. Values are absorbance at 405 nn shown as percent fold increase over the blank; mean values of three experiments are shown. *p<0.001 vs vehicle (DMSO).

For the substance “TAT-ICD: fusion recombinant protein SEQ ID 5: PTPRG intracellular domain aa 797-1445 fused to 13 aa TAT sequence”, the number of cells in the series with U251 GBM cells (TAT-ICD 0.5 μM, 6 hours, Control 5000) is on record as 4676 cells per standard volume of medium; with U251 GBM cells (TAT-ICD 0.5 μM, 9 hours, Control 10000) it was 5400 cells per standard volume of medium; in the series with U251 GBM cells (TAT-ICD 0.5 μM, 24 hours, Control 10000) it was 6094 cells per standard volume of medium; with U251 GBM cells (TAT-ICD 1 μM, 6 hours, Control 5000), 2688 cells per standard volume of medium; in the series with U251 GBM cells (TAT-ICD 1 μM, 9 hours, Control 10000) it was 5434 cells per standard volume of medium; with U251 GBM cells (TAT-ICD 1 μM, 24 hours, Control 10000) it was 5300 cells per standard volume of medium. In addition, the number of cells is on record as 3943 cells per standard volume of medium with U251 GBM cells (TAT-ICD 2 μM, 6 hours, Control 5000); 3016 cells per standard volume of medium in the series with U251 GBM cells (TAT-ICD 2 μM, 9 hours, Control 10000); 4500 cells per standard volume of medium in the series with U251 GBM cells (TAT-ICD 2 μM, 24 hours, Control 10000). For the same substance, the “mean absorbance in the MTT assay” value in the series on bEnd3 endothelial cells (0.1 uM, 24 hours, CTRL 352) came out at 373; with bEnd3 endothelial cells (0.1 uM, 48 hours, CTRL 523) it was 513; with bEnd3 endothelial cells (0.25 uM, 24 hours, CTRL 352), 378; with bEnd3 endothelial cells (0.25 uM, 48 hours, CTRL 523), 579; in the series with bEnd3 endothelial cells (0.5 uM, 24 hours, CTRL 352), 393; in the series on bEnd3 endothelial cells (0.5 uM, 48 hours, CTRL 523), 545. Further, the MTT relative absorption was found to be 772 in the series on DBTRG GBM cells [1] (0.3 μM, 24 hours, Control 941); 770 in the series with DBTRG GBM cells [1] (0.3 μM, 48 hours, Control 1274); 1243 in the series with DBTRG GBM cells [1] (0.3 μM, 72 hours, Control 1667); 773 with DBTRG GBM cells [1] (0.5 μM, 24 hours, Control 941); 623 with DBTRG GBM cells [1] (0.5 μM, 48 hours, Control 1274); 1022 in the series with DBTRG GBM cells [1] (0.5 μM, 72 hours, Control 1667). Also, the MTT relative absorption with DBTRG GBM cells [1] (1.0 μM, 24 hours, Control 941) is recorded as 669; in the series on DBTRG GBM cells [1] (1.0 μM, 48 hours, Control 1274) it was 577; in the series on DBTRG GBM cells [1] (1.0 μM, 72 hours, Control 1667) it was 712; in the series on U87 GBM cells [3] (0.1 μM, 24 hours, CTRL 1200), 1070; in the series on U87 GBM cells [3] (0.1 μM, 48 hours, CTRL 1200), 1167; with U87 GBM cells [3] (0.1 μM, 72 hours, CTRL 1336), 813. Moreover, the MTT relative absorption in the series on U87 GBM cells [3] (0.25 μM, 24 hours, CTRL 1200) was determined as 1069; with U87 GBM cells [3] (0.25 μM, 48 hours, CTRL 1200), 1062; with U87 GBM cells [3] (0.25 μM, 72 hours, CTRL 1336) it was 650; with U87 GBM cells [3] (0.5 μM, 24 hours, CTRL 1200), 1000; in the series on U87 GBM cells [3] (0.5 μM, 48 hours, CTRL 1200) it was 977; with U87 GBM cells [3] (0.5 μM, 72 hours, CTRL 1336), 650. Besides, the “percent of apoptotic cells by flow cytometry” value in the series on DBTRG GBM cells [2] (1 h, Control 14) is recorded as 25%; with DBTRG GBM cells [2] (3 h, Control 16), 40%; in the series on DBTRG GBM cells [2] (6 h, Control 33) it was 70%. Moreover, the “percent of apoptotic cells” value in the series with U87 GBM cells [4] (1 hour, Control 10) is 67%; in the series with U87 GBM cells [4] (3 hours, Control 3), 60%; in the series with U87 GBM cells [4] (6 hours, Control 14), 70%. Besides, the “adhesion of human neutrophils to ICAM-1 (adherent cells), Resting (no stimulation)” value in the series on human neutrophils (TAT-ICD 0.5 micromolar) and with human neutrophils (TAT-ICD 1.0 micromolar) was 12 ± 5 each time.
For the substance “P1-WD: fusion Trojan peptide SEQ ID 3: Penetratin, glycine, PTPRG wedge domain aa 831-856; RQIKIWFQNRRMKWKKGKQFVKHIGELYSNNQHGFSEDFEEVQ (listed as Homo sapiens)”, the “phosphatase activity, absorbance at 405 nm as percent fold increase over the blank” value in the series with PTPRG (P1-WD 50 micromolar) is on record as 34.62* %; in the series with PTPRG (P1-WD 100 micromolar), 86.70* %; in the series on PTPRG (P1-WD 200 micromolar), 109.00* %. The “chemoattractant-induced adhesion / integrin activation of PMNs” value in the series on human neutrophils (human PMNs) is listed as “completely unaffected; also recorded: not able to block”.
